Results from article PMC10629583, “Specific inhibition of an anticancer target, polo-like kinase 1, by allosterically dismantling its mechanism of substrate recognition” (Proceedings of the National Academy of Sciences of the …, 2023).

Key:
[1] = molecular target: T1, PBD3 A612F mutant (Homo sapiens, UniProt Q9H4B4, A612F); experiment: FP-based inhibition assay, PBD3 A612F; format: binding; conditions: MBP-PBD3 A612F
T1 construct: MBP-PBD3-His (335–646) (pKM3359) and its A612F (pKM7981); His (C); made in house; host or cells: bacteria (E. coli)
Experimental: (§1) FP assays were carried out essentially as described previously ([35], [36]). FITC-conjugated ligands (15 nM) were mixed with PBDs at their EC85 concentrations. All the samples were analyzed approximately 30 min after reaction in a 384-well format using the SpectraMax Paradigm multimode microplate detection platform (Molecular Devices). Data were analyzed after carrying out at least three independent experiments using GraphPad Prism software version 8.
(§2) Fig. S3. Sequence alignment showing unique PBD2 S652 and PBD3 A612 residues and FP-based Allopole-A inhibition assays carried out with PBD2 S652F and PBD A612F mutants. (A) Human PBD1 (Uniprot ID: P53350), PBD2 (Uniprot ID: Q9NYY3), and PBD3 (15niport ID:Q9H4B4) sequences were aligned using Clustal Omega. The polo-box cap and L1 loop regions were adjusted based on the structural superposition of PBD1 (PDB ID: 3HIK), PBD2 (PDB_ID: 4RS6), and the AlphaFold model of PBD3 (https://alphafold.ebi.ac.uk). […]
(§3) with PBD2 and MBP-PBD3 are working properly under our conditions. […] The Kd values for the indicated proteins were determined after extrapolating them from the binding curves as the […]
(§4) concentration at which 50% of FITC-conjugated ligands (FITC-GPMQTSpTPKNG for PBD2 and FITC-GPLATSpTPKNG for PBD3) (5) are protein-bound. The EC85 values indicate the effective concentration of 85% of the maximal concentration calculated for each protein. […]

[2] = molecular target: T2, PBD2 S652F mutant (Homo sapiens, UniProt Q9NYY3, S652F); experiment: FP-based inhibition assay, PBD2 S652F; format: binding
T2 construct: Purification of PBD2-His (355–685) (pKM3358) and its S652F mutant (pKM7980); His (C); made in house; host or cells: bacteria (E. coli)
Experimental: as §1, §2, §3, §4

[3] = molecular target: T3, human His-Plk1 (Homo sapiens, UniProt P53350); experiment: In vitro Plk1 kinase assay (casein, 32P); format: biochemical; conditions: casein substrate
T3 construct: His (N); purchased Sino Biological; host or cells: Sf9
Experimental: Kinase reactions were carried out in two steps. First, Sf9-purified 0.2 µg of human His-Plk1 (Sino Biological) was preincubated in a kinase cocktail [50 mM Tris-Cl (pH 7.5), 10 mM MgCl2, 2 mM dithiothreitol, 2 mM EGTA, and 27 mM p-nitrophenylphosphate] in the presence of either Allopole-A or p-13mer PBIP peptide for 20 min at 25 °C. The samples were then added with 1 µg of dephosphorylated casein (Sigma) and 1.25 µM of ATP (1.25 µCi of [γ^32P] ATP, 1Ci = 37 GBq) and reacted for additional 30 min at 30 °C. The reactions were terminated by the addition of 5× Laemmli SDS sample buffer, separated by 10% SDS-PAGE, and analyzed by autoradiography. To quantify the γ^32P signals, appropriate bands were excised from dried SDS-PAGE gels and analyzed by a liquid scintillation counter (Beckman model LS 6500).

[4] = tested on: mGFP-Plk1 WT at centrosomes, U2OS cells; experiment: Confocal quantification of Pendo-mGFP-Plk1 WT in U2OS cells (siPlk1); format: cell-based; conditions: U2OS siPlk1, 8 μM
Experimental: To corroborate the importance of the F559 residue for Allopole-A binding, U2OS cells expressing endogenous promoter (i.e., Pendo)-controlled mGFP-Plk1 WT or F559D mutant were depleted of endogenous Plk1 by RNAi for 48 h (SI Appendix, Fig. S4C), treated with control DMSO or 8 μM of Allopole for 2 or 16 h, and fixed (SI Appendix, Fig. S4D). Afterward, the level of mGFP fluorescence was quantified using confocal microscopy (Fig. 4 C and D). As expected from the results shown in Fig. 1 C and D, Allopole delocalized mGFP-Plk1 WT from centrosomes within 2 h after treatment, and this effect was sustained for up to 16 h. […] This could be attributable to the fact that unlike PBIP1, which binds to PBD1 through the self-priming and binding mechanism ([49]), Bub1, BubR1, and likely Cdc25C require Cdc2-dependent priming phosphorylation to interact with PBD1 ([42]–[44]). […]
(§5) Confocal images of unsaturated fluorescence signals were acquired under the same laser intensity at the 12-bit resolution. Fluorescence intensities for identifiable centrosome and kinetochore signals were quantified after the maximum-intensity projection of z-stacks using the Zeiss ZEN v2.1 software (Carl Zeiss Microscopy, LLC). Data were quantified from three independent experiments.

[5] = tested on: Plk1 at centrosomes and kinetochores, HeLa cells; experiment: Confocal imaging of Plk1 localization in HeLa cells; format: cell-based; conditions: 10 μM, 2 h
Experimental: HeLa cells treated with either control DMSO or on 10 μM of Allopole for 2 h were immunostained using anti-Plk1 (F-8, sc-17783, Santa Cruz Biotechnologies), anti-Cep192 ([63]), and anti-CREST (#15-234, Antibodies Incorporated) antibodies and appropriate secondary antibodies, essentially as described previously ([62]). Samples were additionally stained with 2 µg/mL of Hoechst 33342 to reveal chromosomal morphologies. Images were captured using a Zeiss LSM 780 confocal microscope (Carl Zeiss Microscopy, LLC) equipped with plan-apochromat 40× (N.A. 1.3) and 63× (N.A. 1.4) oil-immersion objective lenses; a 34-channel GaAsP spectral detector; and 12-bit, 0.5-μm z-steps.
as §5

T1 sequence (Q9H4B4 335-646 A612F): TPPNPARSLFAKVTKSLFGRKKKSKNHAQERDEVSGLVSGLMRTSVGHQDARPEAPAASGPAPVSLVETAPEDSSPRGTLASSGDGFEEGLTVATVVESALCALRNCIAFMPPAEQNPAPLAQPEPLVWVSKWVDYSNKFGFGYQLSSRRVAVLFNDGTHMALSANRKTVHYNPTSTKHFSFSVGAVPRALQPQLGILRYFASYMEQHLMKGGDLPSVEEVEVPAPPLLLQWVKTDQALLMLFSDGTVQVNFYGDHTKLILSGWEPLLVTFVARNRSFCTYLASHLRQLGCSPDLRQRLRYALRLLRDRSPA
T2 sequence (Q9NYY3 355-685 S652F): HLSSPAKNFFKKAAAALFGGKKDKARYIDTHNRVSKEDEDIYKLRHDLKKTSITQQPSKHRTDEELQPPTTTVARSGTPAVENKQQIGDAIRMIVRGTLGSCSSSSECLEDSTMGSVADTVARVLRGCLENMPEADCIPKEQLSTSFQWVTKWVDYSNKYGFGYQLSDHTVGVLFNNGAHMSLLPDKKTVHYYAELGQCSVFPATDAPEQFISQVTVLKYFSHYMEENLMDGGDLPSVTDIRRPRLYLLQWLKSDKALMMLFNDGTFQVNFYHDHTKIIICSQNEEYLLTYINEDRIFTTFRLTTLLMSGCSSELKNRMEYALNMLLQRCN
T3 sequence (P53350 whole entry): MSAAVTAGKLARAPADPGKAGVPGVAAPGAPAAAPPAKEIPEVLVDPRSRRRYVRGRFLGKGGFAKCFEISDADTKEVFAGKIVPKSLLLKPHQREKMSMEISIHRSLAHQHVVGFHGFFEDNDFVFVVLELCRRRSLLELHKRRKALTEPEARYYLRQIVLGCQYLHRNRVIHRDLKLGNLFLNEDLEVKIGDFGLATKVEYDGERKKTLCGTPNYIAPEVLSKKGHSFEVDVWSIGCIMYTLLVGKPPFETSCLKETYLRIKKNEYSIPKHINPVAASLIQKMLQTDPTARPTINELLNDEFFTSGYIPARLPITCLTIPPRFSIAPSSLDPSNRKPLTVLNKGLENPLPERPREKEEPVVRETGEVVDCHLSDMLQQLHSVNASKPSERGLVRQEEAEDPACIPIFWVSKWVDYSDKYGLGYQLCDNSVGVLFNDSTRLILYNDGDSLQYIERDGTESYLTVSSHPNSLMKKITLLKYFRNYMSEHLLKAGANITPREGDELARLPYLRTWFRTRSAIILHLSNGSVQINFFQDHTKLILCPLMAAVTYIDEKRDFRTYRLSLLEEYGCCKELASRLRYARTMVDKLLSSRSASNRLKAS

Structure (SMILES)	Inhibition in FP assay (in words) [1]	Inhibition in FP assay (in words) [2]	Effect on His-Plk1 kinase activity in vitro (in words) [3]	Time to delocalization of mGFP-Plk1 WT from centrosomes [4] [h]	Plk1 signals localized at centrosomes and kinetochores (in words) [5]
O=c1c2sc(Cl)cc2n2c(=S)[nH]nc2n1CC1CC1 [Allopole-A]	not inhibitable	not inhibitable	significantly inhibited Plk1 activity		
Cn1cnc([N+](=O)[O-])c1Sc1nnc2n(CC3CC3)c(=O)c3sc(Cl)cc3n12 [Allopole]				≤ 2	greatly diminished
